Like-named read-outs stand apart in the source and are kept apart here.
Biological target: T1, acetylcholinesterase (AChE) from electric eels (type V-S) (Electrophorus electricus, UniProt O42275)
T1 construct: purchased Sigma-Aldrich (St. Louis, MO, USA) type V-S (catalogue number not given)
Assay: Acetylcholinesterase (AChE) inhibitory assay, modified Ellman's colorimetric method, 96-well microplate
Type: biochemical
Details: for AChE inhibitory activity in words: microplate assay

[1] = mean ± standard deviation of two independent experiments, Tris-HCl pH 8, absorbance at 405 nm, read-out: Acetylcholinesterase inhibitory activity IC50

T1 sequence (O42275 24-633): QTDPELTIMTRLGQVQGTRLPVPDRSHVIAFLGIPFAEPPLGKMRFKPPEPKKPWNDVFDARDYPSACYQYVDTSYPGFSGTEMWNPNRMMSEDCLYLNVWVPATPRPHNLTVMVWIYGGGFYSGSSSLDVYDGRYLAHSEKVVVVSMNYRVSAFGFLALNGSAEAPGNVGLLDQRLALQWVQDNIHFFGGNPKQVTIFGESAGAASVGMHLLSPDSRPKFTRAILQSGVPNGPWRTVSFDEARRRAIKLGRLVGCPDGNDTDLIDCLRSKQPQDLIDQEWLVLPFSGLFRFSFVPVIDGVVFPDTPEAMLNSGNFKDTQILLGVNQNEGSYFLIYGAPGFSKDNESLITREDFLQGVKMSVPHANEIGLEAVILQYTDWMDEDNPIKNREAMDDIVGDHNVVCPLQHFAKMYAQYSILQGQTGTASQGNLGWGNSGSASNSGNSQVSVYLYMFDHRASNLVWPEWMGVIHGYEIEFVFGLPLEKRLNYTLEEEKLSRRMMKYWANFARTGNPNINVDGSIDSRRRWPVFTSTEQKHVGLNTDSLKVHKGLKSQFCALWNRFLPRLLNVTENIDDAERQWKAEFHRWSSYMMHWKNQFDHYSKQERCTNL

Compound	AChE inhibitory activity in words	IC50 [1]	IC50
COc1ccc2c(c1O)-c1c(O)c(OC)cc3c1[C@H](C2)[N+](C)(C)CC3 [Compound 4, magnoflorine]	very weak or no inhibitory activity	–	–
O=CN1CCc2cc3c(c4c2C1Cc1ccccc1-4)OCO3 (stereo not shown) [Compound 5, N-formylannonaine]	–	415.3 ± 2.7 µM	–
COc1cc2c(cc1O)-c1cc3ccc(OC)c(OC)c3c[n+]1CC2 [Compound 3, columbamine]	most active compound	–	48.1 ± 1.3 µM
COc1cc2c3c(c1OC)-c1ccccc1CC3N(C=O)CC2 (stereo not shown) [Compound 6, N-formylnornuciferine]	very weak or no inhibitory activity	564.6 ± 2.1 µM	–
COc1cc(/C=C/C(=O)NCCc2ccc(O)cc2)ccc1O [Compound 7, N-trans-feruloyltyramine]	very weak or no inhibitory activity	–	–

Reference: publication PMC6270727, “Anticholinesterase Inhibitory Activity of Quaternary Alkaloids from Tinospora crispa” (Molecules, 2014)
